Reference: patent publication US7928090B2, “External preparation composition” (Lion Corporation, priority 2002, dated 2011)

Legend:
guinea pig skin = test: Continuous irritative test of guinea pig skin (Draize method); format: in vivo, guinea pig (Hartley series); settings: 0.5% in ethanol/propylene glycol (7:3), 3 days straight, full marks 8 points
Experimental: Each left and right two spots (4 spots/head) of applying parts having a frame of 2 cm×2 cm were provided on the back of a shaved guinea pig (Hartley series, 7 weeks of age, female, N=10), and each 50 μL of an ethanol/propylene glycol (7:3) solution containing 0.5% of the respective acyl glucosamine derivatives shown in the following Table 1 was applied once a day on the respective frames.
A skin irritative score after application for 3 days straight was evaluated according to the following evaluation criteria (Draize method). The above irritative score was shown by the total points (full marks: 8 points) of erythema and edema.
Evaluation Criteria of Skin Irritative Score:
3: middle to strong erythema
4: very strong erythema to crust
1: very slight edema formation
2: slight edema formation
3: middle edema formation
4: strong edema formation

acne patients = test: Acne-improvement evaluation; format: in vivo, human; settings: essence with 0.05%, applied on face several times a day, one month
Experimental: Prepared was an essence for acne shown in the following composition example in which 0.05% of various acyl glucosamine derivatives shown in the following Table 6 was blended. An essence which was not blended with an acyl glucosamine derivative was prepared as a control.
Sixty acne patients were picked up as subjects to apply everyday the respective essences on the faces thereof several times a day, and the therapeutic effect against the acnes was visually evaluated a month later according to four degrees of the following evaluation criteria.
In the four degree evaluation described above, improvement (∘) or better effect (⊚) was regarded as “effective for treating acnes”, and the subjects showing a treating effect were shown by a numerical value (percentage).

[1] = Table 1, 50 μL once a day, total of erythema and edema

Row | Structure (SMILES) | Draize score (guinea pig skin; Table 2, by stereoisomer ratio) [points] | Draize score (guinea pig skin; [1]) [points] | Evaluation X (worsened), number of subjects (acne patients) | Evaluation Δ (no change), number of subjects (acne patients) | Evaluation ⊚ (notably improved), number of subjects (acne patients) | Evaluation ◯ (improved), number of subjects (acne patients)
1 | CC(=O)OC[C@H]1OC(OC(C)=O)[C@H](NC(=O)/C=C(C)/C=C/C=C(C)/C=C/C2=C(C)CCCC2(C)C)[C@@H](OC(C)=O)[C@@H]1OC(C)=O (single isomer, unassigned) [1,3,4,6-tetra-O-acetyl-N-retinoyl-D-glucosamine (9-cis isome] [listing 1 of 2 here] | 0.0 | – | – | – | – | –
2 | CC(=O)OC[C@H]1OC(OC(C)=O)[C@H](NC(=O)/C=C(C)/C=C/C=C(C)/C=C/C2=C(C)CCCC2(C)C)[C@@H](OC(C)=O)[C@@H]1OC(C)=O (single isomer, unassigned) [1,3,4,6-tetra-O-acetyl-N-retinoyl-D-glucosamine (9-cis isome] [listing 2 of 2 here] | 0.0 | – | – | – | – | –
3 | CC(=O)OC[C@H]1OC(OC(C)=O)[C@H](NC(=O)/C=C(C)/C=C/C=C(C)/C=C/C2=C(C)CCCC2(C)C)[C@@H](OC(C)=O)[C@@H]1OC(C)=O (single isomer, unassigned) [1,3,4,6-tetra-O-acetyl-N-retinoyl-D-glucosamine (13-cis isom] | 0.0 | – | – | – | – | –
4 | CC(=O)OC[C@H]1OC(OC(C)=O)[C@H](NC(=O)/C=C(C)/C=C/C=C(C)/C=C/C2=C(C)CCCC2(C)C)[C@@H](OC(C)=O)[C@@H]1OC(C)=O (single isomer, unassigned) [1,3,4,6-tetra-O-acetyl-N-retinoyl-D-glucosamine (cis isomer/] | 0.0 | – | – | – | – | –
5 | CC(C=CC1=C(C)CCCC1(C)C)=CC=CC(C)=CC(=O)N[C@H]1C(O)O[C@H](CO)[C@@H](O)[C@@H]1O (single isomer, unassigned) [N-retinoyl-D-glucosamine (9-cis isomer/13-cis isomer/trans i] | – | 0.1 | – | – | – | –
6 | CC(C=CC1=C(C)CCCC1(C)C)=CC=CC(C)=CC(=O)N[C@H]1C(O)O[C@H](CO)[C@@H](O)[C@@H]1O (single isomer, unassigned) [N-retinoyl-D-glucosamine (9-cis isomer/trans isomer = 0.5/99.5), N-retinoyl-D-glucosamine] | 0.1 | – | – | – | – | –
7 | CC(C=CC1=C(C)CCCC1(C)C)=CC=CC(C)=CC(=O)N[C@H]1C(O)O[C@H](CO)[C@@H](O)[C@@H]1O (single isomer, unassigned) [N-retinoyl-D-glucosamine (13-cis isomer/trans isomer = 0.5/99.5), N-retinoyl-D-glucosamine] | 0.0 | – | – | – | – | –
8 | CC(C=CC1=C(C)CCCC1(C)C)=CC=CC(C)=CC(=O)N[C@H]1C(O)O[C@H](CO)[C@@H](O)[C@@H]1O (single isomer, unassigned) [N-retinoyl-D-glucosamine (cis isomer/trans isomer = 0/100), N-retinoyl-D-glucosamine] | 0.0 | – | – | – | – | –
9 | CC(=O)OC[C@H]1OC(OC(C)=O)[C@H](NC(=O)/C=C(C)/C=C/C=C(C)/C=C/C2=C(C)CCCC2(C)C)[C@@H](OC(C)=O)[C@@H]1OC(C)=O (stereo partly drawn) [1,3,4,6-tetra-O-acetyl-N-retinoyl-D-glucosamine] | – | 0.0 | – | – | – | –
10 | CC(C)CCCCCCCCCCCCCCC(=O)N[C@H]1C(O)O[C@H](CO)[C@@H](O)[C@@H]1O (stereo partly drawn) [N-isostearoyl-D-glucosamine] | – | 0.1 | 0 | 2 | 0 | 3
11 | CCCCCCCCCCCC(=O)N[C@H]1C(O)O[C@H](CO)[C@@H](O)[C@@H]1O (stereo partly drawn) [N-lauroyl-D-glucosamine] | – | 0.1 | 1 | 1 | 0 | 1
12 | CCCCC/C=C\C/C=C\CCCCCCCC(=O)N[C@H]1C(O)O[C@H](CO)[C@@H](O)[C@@H]1O (stereo partly drawn) [N-linoleoyl-D-glucosamine] | – | 0.3 | 1 | 3 | 0 | 1
13 | CCCCCCCC/C=C\CCCCCCCC(=O)N[C@H]1C(O)O[C@H](CO)[C@@H](O)[C@@H]1O (stereo partly drawn) [N-oleoyl-D-glucosamine] | – | 0.2 | 0 | 2 | 0 | 3
14 | CC1=C(/C=C/C(C)=C/C=C/C(C)=C/C(=O)O)C(C)(C)CCC1 [Retinoic acid, reference compound] | – | 8.0 | – | – | – | –
